In patent publication US20090053695A1, “Gene Marker and Use Thereof” (priority 2004, published 2009):

Test system: gene markers (Tap1 or Ctss)
Experiment: Temporal changes in blood expression levels of Tap1 and Ctss after heart transplantation (Example 5, FIG. 4)
Assay type: in vivo, rat
Settings: s.c. daily dosing as in Example 2; blood mRNA to post-transplantation day 4, relative to pre-transplantation level (as 1)
Experimental: To precisely examine changes in the expression level of each of the genes selected here, their mRNAs were quantified. For Irf1, Psmb9, Nos2, and Pim1, the mRNA was quantified by using 25 ng of extracted mRNA together with each primer and probe shown in Table 1, synthesizing cDNA with TaqMan Reverse Transcription Reagents (manufactured by Applied Biosystems) under the conditions shown in Table 1, on an ABI PRISM 7900HT Detection System (manufactured by Applied Biosystems), and using β-actin as an internal control. For Tap1 and Ctss, mRNA was quantified by using 25 ng of extracted mRNA together with each primer and probe (final concentrations: […] each primer, 250 nM TaqMan probe; TaqMan Gene Expression Assays Rn00709612_ml (Tap1) or Rn00569036_ml (Ctss), Applied Biosystems), synthesizing cDNA with TaqMan Reverse Transcription Reagents (manufactured by Applied Biosystems) on an ABI PRISM 7900HT Detection System (manufactured by Applied Biosystems), and using β-actin as an internal control. […]

With C=CC[C@@H]1/C=C(\C)C[C@H](C)C[C@H](OC)[C@H]2O[C@@](O)(C(=O)C(=O)N3CCCC[C@H]3C(=O)O[C@H](/C(C)=C/[C@@H]3CC[C@@H](O)[C@H](OC)C3)[C@H](C)[C@@H](O)CC1=O)[C@H](C)C[C@@H]2OC [tacrolimus] the “expression levels of the gene markers Tap1 and Ctss compared with the rejection group” value was “suppressed compared with the rejection group, to the level similar to or lower than that of the non-rejection group”.
